Results from patent US20190083420A1, “METHODS OF USING (2R, 6R)-HYDROXYN[…] (2S, 6S)-HYDROXYN[…] THE TREATMENT OF DEPRESSION, ANXIETY, ANHEDONIA, FATIGUE, SUICIDAL IDEATION, AND POST TRAUMATIC STRESS DISORDERS” (The Uinited States of America, as represented by the …, priority 2016, published 2019).

Experiments:
mice [1] = assay: Open field test (locomotor activity); type: in vivo; details: 1 hour after i.p. drug
Procedure: Mice were placed into individual open-field arenas (50 cm length×50 cm width×38 cm height; San Diego Instruments, San Diego, Calif., USA) for a 60-min habituation period. Mice were then injected with the respective drug and assessed for locomotor activity for another 60 min. Distance travelled was analyzed using TopScan v2.0 (CleverSys, Inc, Reston, Va., USA).

mice [2] = assay: Accelerating rotarod (motor coordination); type: in vivo; details: 5-60 min post-injection, i.p.
Procedure: The rotarod test was conducted to compare the effects of ketamine, (2S,6S)-HNK and (2R,6R)-HNK on motor coordination. The experiment consisted of two phases: training phase (4 days) and a test phase (1 day). On each of the training days five trials (trial time: 3 min) were conducted with an inter-trial interval of two min Mice were individually placed on the rotarod apparatus (HTC Life Science; Woodland Hills, Calif., USA) and the rotor (3.75 inch diameter) accelerated from 5-20 RPM over a period of three minutes. Latency to fall was recorded for each trial. Animals with an average of <100 sec of latency to fall during the last training day were excluded from the experiment. On the test day (day 5), mice received (i.p.) injections of saline, (R,S)-KET (10 mg/kg), (2S,6S)-HNK (25 or 125 mg/kg) or (2R,6R)-HNK (2.5 or 125 mg/kg) and were tested in the rotating rod 5-. 10-, 15-, 20-, 30- and 60-min post-injection using the same procedure described for the training days.

male CD-1 mice [3] = assay: Learned helplessness (LH); type: in vivo; details: single injection; for antidepressant-like effect in learned helplessness (escape failures): test 24 hours after administration
Source text: (§1) Male CD-1 mice (8-10 weeks old, Charles River Laboratories, Mass., USA) were housed in groups of four-five per cage with a constant 12-hour light/dark cycle (lights on/off at 07:00/19:00). Food and water were available ad libitum. Mice acclimatized to the new environment for seven days prior to the start of the experiments. For the whole-cell NMDA current electrophysiological recordings, male Sprague-Dawley rats (housed three per cage; Charles River, Wilmington, Mass.) were used. EPSC recording were done from rats at postnatal day 24-25. All experimental procedures were approved by the University of Maryland, Baltimore Animal Care and Use Committee and were conducted in full accordance with the National Institutes of Health Guide for the Care and Use of Laboratory Animals.
The LH paradigm consisted of three different phases, i.e., inescapable shock training, LH screening, and the LH test. For the inescapable shock portion of the test (Day 1), the animals were placed in one side of two-chambered shuttle boxes (34 cm height×37 cm width×18 cm depth; Coulbourn Instruments, PA, USA), with the door between the chambers closed. Following a five-min adaptation period, 120 inescapable foot-shocks (0.45 mA, 15 sec duration, randomized average inter-shock interval of 45 sec) were delivered through the grid floor. During the screening session (Day 2), the mice were placed in one of the two chambers of the apparatus for 5 min. A shock (0.45 mA) was then delivered, and the door between the two chambers was raised simultaneously. Crossing over into the second chamber terminated the shock. […] A total of 30 screening trials of escapable shocks were presented to each mouse with an average of 30 sec delay between each trial. Mice that developed helplessness behavior (>5 escape failures during the last 10 screening shocks) were administered with the respective drug 24 hours following screening (Day 3). During the LH test phase (Day 4), the animals were placed in the shuttle boxes and, after a 5-min adaptation period, a 0.45 mA shock was delivered concomitantly with door opening for the first five trials, followed by a 2-sec delay for the next 40 trials. Crossing over to the second chamber terminated the shock. […] A total of 45 trials of escapable shock were presented to each mouse with 30 sec inter-trial intervals. The number of escape failures was recorded for each mouse.

[4] = Tissue distribution of ketamine and metabolites (plasma and brain levels)
Procedure: Mice were euthanized by a 30-sec exposure to 3% isoflurane and decapitated at 10, 30, 60, 240 or 480 minutes following drug administration. Trunk blood was collected in EDTA-containing tubes and centrifuged at 8000 rpm for 6 min (4° C.). Plasma was collected and stored at −80° C. until analysis. Whole brains were simultaneously collected, rinsed with phosphate-buffered saline, immediately frozen in dry ice and stored at −80° C. until analysis.
The concentrations of ketamine and its metabolites in plasma and brain tissue were determined by achiral liquid chromatography-tandem mass spectrometry. For plasma samples, the calibration standards for (R,S)-ketamine, (R,S)-norketamine, (2R,6R;2S,6S)-HNK and (R,S)-DHNK ranged from 10,000 ng/ml to 19 ng/ml. The quantification of (R,S)-ketamine, (R,S)-norketamine, (R,S)-DHNK, and the HNK stereoisomers was accomplished by calculating area ratios using D4-ketamine (10 μl of 10 μg/ml solution) as the internal standard. Whole brains were suspended in 990 μl of water:methanol (3:2, v/v), D4-ketamine (10 μl of 10 μg/ml) added and the resulting mixture homogenized on ice with a polytron homogenizer and centrifuged at 21,000×g for 30 min. The supernatant was collected and processed using 1 ml Oasis HLB solid phase extraction cartridges (Waters Corp., Waltham, Mass.). The cartridges were preconditioned with 1 ml of methanol, followed by 1 ml of water and then 1 ml ammonium acetate [10 mM, pH 9.5]. The supernatants were added to the cartridges, followed by 1 ml of water and the compounds were eluted with 1 ml of methanol. The eluent was transferred to an autosampler vial for analysis. QC standards for the analysis of (R,S)-ketamine, (R,S)-norketamine, (R,S)-DHNK and (2R,6R;2S,6S)-HNK ranged from 10,000 ng/ml to 19 ng/ml, and quantification was accomplished using D4-(R,S)-ketamine as the internal standard. QC standards were prepared daily by adding 10 μl of the appropriate standard solution and 10 μl of internal standard solution (100 ng/ml) to methanol.

male CD-1 mice [5] = assay: Forced-swim test (FST); type: in vivo; details: 1- and 24-hours post-injection, times not separated, i.p.
Source text: as §1
Mice were tested in the FST 1 hour and/or 24 hours post-injection. During the FST, mice were subjected to a 6-min swim session in clear Plexiglass cylinders (30 cm height×20 cm diameter) filled with 15 cm of water (23±1° C.). The FST was performed in normal light conditions (800 Lux). Sessions were recorded using a digital video-camera. Immobility time, defined as passive floating with no additional activity other than that necessary to keep the animal's head above water, was scored for the last 4 min of the 6-min test by a trained observer blind to the treatment.
All drugs were dissolved in 0.9% saline, and administered intraperitoneally (i.p.) in a volume of 7.5 ml/kg of body mass. Corticosterone (4-pregnen-11β, 21-diol-3, 20-dione 21-hemisuccinate; Steraloids, Newport, R.I., USA) was dissolved in tap water. For the electrophysiology recordings, test drugs were diluted in artificial cerebrospinal fluid (AC SF).

male CD-1 mice [6] = assay: Novelty-suppressed feeding (NSF); type: in vivo; details: i.p.
Source text: as §1
Mice were singly housed and food-deprived for twenty-four hours in freshly-made home-cages. Two normal chow diet pellets were placed on a square food platform (10×10 cm) in the center of an open-field arena (40×40 cm). […] The time needed for the mice to take a bite of food was recorded over a 10 min period by a trained observer blind to the treatment groups. After the test, the mice were returned to their home cage containing pre-weighed food pellets, and latency to bite the food as well as consumption was recorded for a period of 10 min.

[7] = plasma of humans; cited from earlier work
NMDA receptor = details: (S)-ketamine versus (R)-ketamine; cited from earlier work

N[C@]1(c2ccccc2Cl)CCC[C@H](O)C1=O [(2S,6S)-HNK, (2S,6S)-2-amino-2-(2-chlorophenyl)-6-hydroxycyclohexanone]
locomotor activity in the open-field test (mice [1]): increased locomotor activity
locomotor activity in the open-field test (mice [1]; listed as (2S,6S)-hydroxynorketamine): dose-dependently changed locomotor activity
motor coordination in the rotarod (mice [2]): motor incoordination
motor coordination in the rotarod (mice [2]; listed as (2S,6R)-HNK): induced motor incoordination
doses with antidepressant-like effects in learned helplessness (male CD-1 mice [3]): 75 mg/kg
antidepressant-like effect in learned helplessness (escape failures) (male CD-1 mice [3]): induced antidepressant-like effects
brain hydroxynorketamine levels after administration of (2S,6S)-HNK versus (2R,6R)-HNK ([4]; brain): higher brain hydroxynorketamine levels compared to (2R,6R)-HNK

CN[C@@]1(c2ccccc2Cl)CCCCC1=O [(R)-ketamine, reference compound]
antidepressant-like effect in learned helplessness (escape failures) (male CD-1 mice [3]): greater potency
antidepressant effect in the FST (immobility time) (male CD-1 mice [5]): greater potency
brain levels of (R)-ketamine compared to (S)-ketamine ([4]; brain, after (S)- and (R)-KET): does not result from higher brain levels
antidepressant-like effect in novelty-suppressed feeding (latency to feed) (male CD-1 mice [6]): greater potency

N[C@@]1(c2ccccc2Cl)CCC[C@@H](O)C1=O [(2S,6S;2R,6R)-HNK, (2S,6S;2R,6R)-hydroxynorketamine]
brain levels following ketamine administration, female mice compared to males ([4]; brain): three fold higher
metabolite found in plasma and brain following ketamine administration ([4]; mice, (R,S)-KET 10 mg/kg i.p.): major HNK metabolite
metabolite found in plasma following ketamine administration [7]: major HNK metabolite

CN[C@]1(c2ccccc2Cl)CCCCC1=O [(S)-ketamine]
potency as inhibitor of the NMDA receptor relative to (R)-ketamine (NMDA receptor): ~4 fold
